The subject of assay [1] is isoamylase of Xanthomonas maltophilia S-517. Nature of the assay: Influence of inhibitors and metal salts on isoamylase activity. It counts as biochemical. The following applies: for Inhibition by Metal Salt: Table 3, isoamylase of Xanthomonas maltophilia S-517 (Invention); for Inhibition of the enzyme of the present invention: in words. The method, then: Measurements of activity of the enzyme of the present invention were made as follows in accordance with the method of Maruo-Kobayashi (see NIHON NOGEI KAISHI, Vol. 23, pp. 115-120 (1949).
A reaction system consisting of 2.0 ml of a 1.0% soluble starch (glutinous rice) solution, 0.4 ml of a 0.5M acetate buffer solution (pH=3.5), and 0.4 ml of an enzyme liquid was allowed to react at 40° C. for 30 minutes. To the reaction system was added 0.4 ml of a 0.01N iodine solution. After dilution with water to 10 ml, the absorbance at 610 nm was measured. The enzyme activity on an absorbance increase of 0.1 within 1 hour was taken as 10 units.

For assay [2], the system named is isoamylase of Pseudomonas origin. As to conditions: cited from earlier work; for Inhibition by Metal Salt: Table 3, isoamylase of Pseudomonas origin; for Inhibition of the enzyme derived from Pseudomonas: in words.
Assay [3] has as its system isoamylase of Xanthomonas maltophilia S-517. Nature of the assay: Substrate specificity of the purified isoamylase. As to conditions: for Substrate specificity: in words; for Initial Velocity: relative, glycogen = 100; for V: velocity of the purified isoamylase on the named substrate. The assay is classed as biochemical.

“Also recorded” adds a separate entry of the source. Like-named read-outs stand apart in the source and are kept apart here.

As for `[Cl][Hg][Cl]` [HgCl2], in assay [1] (inhibitor concentration 1 mM), the “Percent Inhibition” value was 42.2%.
Same read-out and setting: the value for `[Cl][Cu][Cl]` [CuCl2] was 20.7%.
For `OCCS` [β-Mercaptoethanol], the “Percent Inhibition” value in assay [1] (inhibitor concentration 10 mM) is 31.7%.
Consider `O=C1CCC(=O)O1` [Succinic anhydride], for which, in assay [1] (inhibitor concentration 5 mM), the “Percent Inhibition” value was 8.4%.
With `O=C(O)CN(CCN(CC(=O)O)CC(=O)O)CC(=O)O` [EDTA], in assay [1] (inhibitor concentration 5 mM), the “Percent Inhibition” value was determined as 0%.
For `[Cl-].[Cl-].[Mg+2]` [MgCl2], in assay [1], the “Inhibition by Metal Salt” value was found to be 26.3% and the “Inhibition of the enzyme of the present invention” value is recorded as “inhibited”. Further, the “Percent Inhibition” value in assay [1] (inhibitor concentration 1 mM) amounted to 26.3%. Further, in assay [2], the “Inhibition by Metal Salt” value is given as 0% and the “Inhibition of the enzyme derived from Pseudomonas” value (shortened to “Inhibition of the enzyme derived”) is “not inhibited”.
As to Pullulan, in assay [3], the Substrate specificity result was “does not act; also recorded: hardly acts”, the “Initial Velocity” value turned out to be 1.3% and the V is given as 8.45 × 10^-3 μmol/min/U.
Turning to `O=C(O)c1cc[c]([Hg][Cl])cc1` [PCMB], in assay [1], the “Inhibition by Metal Salt” value was found to be 0% and the “Inhibition of the enzyme of the present invention” value was “not inhibited”. The “Percent Inhibition” value in assay [1] (inhibitor concentration 1 mM) stood at 0%. In assay [2], the “Inhibition by Metal Salt” value was 34% and the “Inhibition of the enzyme derived” value is listed as “inhibited”.
Turning to Ammonium molybdate, the “Percent Inhibition” value in assay [1] (inhibitor concentration 1 mM) is 0%.
Regarding Glycogen, in assay [3], the Substrate specificity result is “actively acts”, the “Initial Velocity” value is listed as 100% and the V was 6.28 × 10^-1 μmol/min/U.
For the compound `O=C1CCC(=O)N1Br` [N-Bromosuccinimide], in assay [1] (inhibitor concentration 0.01 mM), the “Percent Inhibition” value is listed as 100.0%.
Regarding `O=[N+]([O-])[O-].[Ag+]` [AgNO3], the “Percent Inhibition” value in assay [1] (inhibitor concentration 1 mM) turned out to be 98.0%.
Amylopectin: in assay [3], the Substrate specificity entry is “acts”, the “Initial Velocity” value came to 34.7% and the V is recorded as 2.18 × 10^-1 μmol/min/U.
For `O=[N+]([O-])c1ccc(O)c(CBr)c1` [2-Hydroxy-5-nitrobenzyl bromide], the “Percent Inhibition” value in assay [1] (inhibitor concentration 0.1 mM) came to 14.3%.
Turning to `I[I-]I.[K+]` [Potassium iodoiodide], in assay [1] (inhibitor concentration 1 mM), the “Percent Inhibition” value was found to be 4.5%.
As to `CC(=O)I` [Acetyl monoiodide], the “Percent Inhibition” value in assay [1] (inhibitor concentration 0.1 mM) was found to be 10.1%; in assay [1] (inhibitor concentration 5 mM) it was 34.6%.
As for `[Cl-].[Na+]` [NaCl], the “Percent Inhibition” value in assay [1] stood at 0%.
Turning to `[F-].[Na+]` [NaF], in assay [1], the “Inhibition by Metal Salt” value worked out at 0% and the “Inhibition of the enzyme of the present invention” value is recorded as “not inhibited”. The “Percent Inhibition” value in assay [1] (inhibitor concentration 1 mM) was 0%. In assay [2], the “Inhibition by Metal Salt” value is recorded as 19% and the “Inhibition of the enzyme derived” value was “inhibited”.
As to `O=C1O[C@H](CO)[C@@H](O)[C@H](O)[C@H]1O` [Glucono-1,5-lactone], in assay [1] (inhibitor concentration 10 mM), the “Percent Inhibition” value was 8.0%.

The record behind these values is patent US5352602A, “Isoamylase and process for producing the same” (Amano Pharmaceutical Co., Ltd., priority 1992, dated 1994).
